{"source": "ChEMBL document CHEMBL5500405", "about": "“Design and Synthesis of Clinical Candidate PF-06852231 (CVL-231): A Brain Penetrant, Selective, Positive Allosteric Modulator of the M4 Muscarinic Acetylcholine Receptor” (J Med Chem, 2024)", "key": {"[1]": {"assay": "Lipophilicity, logD of compound by shake flask method", "format": "physicochemical", "conditions": "octanol/water"}, "[2]": {"assay": "Stability of compound at pH 1 assessed as half-life by 1H NMR assay", "format": "physicochemical", "conditions": "buffer"}, "[3]": {"assay": "Unbound brain concentration in mouse at 10 mg/kg, sc", "format": "ADME, organism-based", "conditions": "in vivo"}, "[4]": {"assay": "Unbound brain concentration in mouse at 32 mg/kg, sc", "format": "ADME, organism-based", "conditions": "in vivo"}, "[5]": {"assay": "Unbound plasma concentration in mouse at […], sc", "format": "ADME, organism-based", "conditions": "in vivo, dose 3.2 mg/kg"}, "[6]": {"assay": "Unbound plasma concentration in mouse at 10 mg/kg, sc", "format": "ADME, organism-based", "conditions": "in vivo"}, "[7]": {"assay": "Unbound brain concentration in mouse at 1 mg/kg, sc", "format": "ADME, organism-based", "conditions": "in vivo"}, "[8]": {"assay": "Unbound plasma concentration in mouse at 1 mg/kg, sc", "format": "ADME, organism-based", "conditions": "in vivo"}, "[9]": {"assay": "Unbound plasma concentration in mouse at 32 mg/kg, sc", "format": "ADME, organism-based", "conditions": "in vivo"}, "[10]": {"assay": "Unbound brain concentration in mouse at […], sc", "format": "ADME, organism-based", "conditions": "in vivo, dose 3.2 mg/kg"}}}
{"smiles": "Cc1cc(C)c2c(n1)CN(C(=O)CC1CC1)C2", "values": [{"measurement": "logD", "setting": "[1]", "result": 1.84}]}
{"smiles": "Cc1cc(C)c2c(n1)CN(C(=O)CC1CN(c3ccccc3)C1)C2", "values": [{"measurement": "half-life", "setting": "[2]", "result": 9, "unit": "min"}]}
{"smiles": "Cc1cc(C)c2c(n1)CN(C(=O)CC1CN(c3ccnc(C(F)(F)F)c3)C1)C2", "note": "[EMRACLIDINE]", "values": [{"measurement": "Drug uptake(free)", "setting": "[3]", "result": 105, "unit": "nM"}, {"measurement": "Drug uptake(free)", "setting": "[4]", "result": 240, "unit": "nM"}, {"measurement": "Cp(f)", "setting": "[5]", "result": 47, "unit": "nM"}, {"measurement": "Cp(f)", "setting": "[6]", "result": 219, "unit": "nM"}, {"measurement": "Drug uptake(free)", "setting": "[7]", "result": 13, "unit": "nM"}, {"measurement": "Cp(f)", "setting": "[8]", "result": 26, "unit": "nM"}, {"measurement": "Cp(f)", "setting": "[9]", "result": 480, "unit": "nM"}, {"measurement": "Drug uptake(free)", "setting": "[10]", "result": 22, "unit": "nM"}]}
